Legend:
Format in all cases: cell-based
MCF7 cells = assay: Cell proliferation assay MCF7; settings: MCF7 human breast cancer cells; 120 hours; ATPlite 1 Step
In short: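 After 120 h of compound exposure (duplicates, DMSO at most 0.5%) in DMEM GlutaMAX with 10% FBS, ATPlite 1 Step luminescence measured cellular ATP. Compound was added 24 h after seeding, at a density chosen for ~90% confluence at the end.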

H3K4me3 mark = assay: Histone lysine demethylase immunofluorescence assay, non-transfected U2OS cells; settings: Homo sapiens, staining of the H3K4me3 mark, 20 hours incubation with compound
In short: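 Non-transfected U2OS cells incubated with compounds 20 h in DMEM/5% FBS. Fixed cells immunostained for H3K4me3 with Hoechst counterstain and imaged by high-throughput microscopy. IC50 based on average cellular H3K4me3 staining.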

KDM5B = target: T1, KDM5B (Homo sapiens, UniProt Q9UGL1); assay: Histone lysine demethylase immunofluorescence assay, U2OS cells transfected with KDM5B; settings: U2OS cells transfected with pCMVHA KDM5B; mark detected H3K4me2; 20 hours
T1 construct: (a.a. 1-752); host or cells: U2OS
T1 sequence (Q9UGL1 1-752): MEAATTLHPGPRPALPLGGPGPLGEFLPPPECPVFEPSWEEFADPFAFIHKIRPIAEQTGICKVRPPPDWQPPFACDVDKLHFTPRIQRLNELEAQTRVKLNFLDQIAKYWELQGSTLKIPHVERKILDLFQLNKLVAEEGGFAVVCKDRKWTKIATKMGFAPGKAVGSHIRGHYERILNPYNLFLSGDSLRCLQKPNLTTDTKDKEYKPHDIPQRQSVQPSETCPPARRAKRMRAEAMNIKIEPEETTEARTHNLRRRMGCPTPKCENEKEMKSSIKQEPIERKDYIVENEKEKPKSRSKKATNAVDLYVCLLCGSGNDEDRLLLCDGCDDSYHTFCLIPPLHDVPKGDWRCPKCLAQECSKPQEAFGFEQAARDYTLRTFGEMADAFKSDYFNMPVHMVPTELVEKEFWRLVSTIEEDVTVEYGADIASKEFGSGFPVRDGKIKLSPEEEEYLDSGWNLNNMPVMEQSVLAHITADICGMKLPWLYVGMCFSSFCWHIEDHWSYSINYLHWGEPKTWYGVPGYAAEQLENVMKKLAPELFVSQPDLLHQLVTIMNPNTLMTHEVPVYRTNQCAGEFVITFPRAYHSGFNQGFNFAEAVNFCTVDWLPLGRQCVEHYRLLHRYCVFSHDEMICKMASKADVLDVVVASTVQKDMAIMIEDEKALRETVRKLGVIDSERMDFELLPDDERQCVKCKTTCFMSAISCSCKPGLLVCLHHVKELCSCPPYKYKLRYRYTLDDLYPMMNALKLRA
In short: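 U2OS cells were transiently transfected with HA-tagged demethylase and reseeded after 6 h into compound-containing DMEM/10% FBS for 20 h. Cells were fixed in formaldehyde and immunostained for HA and the relevant histone methyl mark, then imaged. IC50 is based on mean mark staining in HA+ transfected cells.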

| SMILES | EC50 (MCF7 cells) [nM] | IC50 (H3K4me3 mark) [nM] | IC50 (KDM5B) [nM] |
| --- | --- | --- | --- |
| COc1ccccc1CN1CCC(NC(=O)CNCc2cc(CN)ccn2)CC1 [Compound 9, 2-({[4-(aminomethyl)pyridin-2-yl]methyl}amino)-N-{1-[(2-methoxyphenyl)methyl]-piperidin-4-yl}acetamide] | > 2500 | 250 to 2500 | 250 to 2500 |
| CC(C#N)NCc1ccnc(CNCCCN(C)C)c1 (stereo not drawn) [Compound 22, 2-({[2-({[3-(dimethylamino)propyl]-amino}methyl)pyridin-4-yl]methyl}amino)-propanenitrile] | < 250 | < 250 | < 250 |
| CCN(CCN(C)C)C(=O)CNCc1cc(CNC(=O)C(F)(F)F)ccn1 [Compound 25, N-[(2-{[({[2-(dimethylamino)ethyl]-(ethyl)carbamoyl}-methyl)amino]methyl}-pyrtdin-4-yl)methyl]-2,2,2-trifluoroacetamide] | < 250 | < 250 | < 250 |
| CN(C)C(=O)CNCc1cc(/C=N/CCC2CCCCC2)ccn1 [Compound 36, 2-[({4-[[(2-cyclohexylethyl)imino]-methyl]pyridin-2-yl}methyl)amino]-N,N-dimethylacetamide] | 250 to 2500 | < 250 | 250 to 2500 |
| CN(C)CCCNCc1cc(/C=N/CCN(C)C)ccn1 [Compound 38, ({4-[{[2-(dimethylamino)ethyl]-imino}methyl]pyridin-2-yl}methyl)[3-(dimethylamino)-propyl]amine] | < 250 | < 250 | < 250 |
| CN1CCCC1CCNCc1cc(/C=N/C2CC2)ccn1 (stereo not drawn) [Compound 40, N-{[2-({[2-(l-methylpyrrolidin-2-yl)ethyl]amino}methyl)-pyridin-4-yl]methylidene}-cyclopropanamine] | 250 to 2500 | < 250 | < 250 |
| CN(C)C/C=C/CNCc1cc(/C=N/C2CC2)ccn1 [Compound 43, N-{[2-({[(2E)-4-(dimethylamino)but-2-en-1-yl]amino}-methyl)pyridin-4-yl]methylidene}-cyclopropanamine] | < 250 | < 250 | < 250 |
| CN(C)CC1CCC(CNCc2cc(/C=N/C3CC3)ccn2)CC1 (stereo not drawn) [Compound 46, N-[(2-{[({4-[(dimethylamino)-methyl]cyclohexyl}-methyl)amino]-methyl}pyridin-4-yl)methylidene]-cyclopropanamine] | < 250 | < 250 | < 250 |
| CCN(CC)CCCCNCc1cc(/C=N/CCO)ccn1 [Compound 61, 2-[{[2-({[4-(diethylamino)-butyl]amino}-methyl)pyridin-4-yl]methylidene}-amino]ethan-1-ol] | < 250 | < 250 | < 250 |
| CCN(CC)CCCCNCc1cc(/C=N/CC(F)(F)C(F)(F)F)ccn1 [Compound 62, {[2-({[4-(diethylamino)-butyl]amino}methyl)pyridin-4-yl]methylidene} (2,2,3,3,3-pentafluoropropyl)-amine] | < 250 | < 250 | < 250 |
| CON=Cc1ccnc(CNCCCN(C)C)c1 [Compound 64, [3-(dimethylamino)-propyl]({4-[(methoxyimino)-methyl]pyridin-2-yl}methyl)amine] | > 2500 | 250 to 2500 | > 2500 |
| CCN(CC)CCCCNCc1cc(/C=N\CCC2CCCCC2)ccn1 [Compound 67, (2-cyclohexylethyl)-({[2-({[4-(diethylamino)-butyl]amino}methyl)pyridin-4-yl]methylidene})-amine] | < 250 | < 250 | < 250 |
| CCN(CCN(C)C)C(=O)CNCc1cc(C2OCC(Cc3ccccc3)CN2C(=O)C(F)(F)F)ccn1 (stereo not drawn) [Compound 90, 2-[({4-[5-benzyl-3-(trifluoroacetyl)-1,3-oxazinan-2-yl]pyridin-2-yl}methyl)amino]-N-[2-(dimethylamino)-ethyl]-N-ethylacetamide] | < 250 | < 250 | < 250 |
| CCN(CCN(C)C)C(=O)CNCc1cc(C2OCC3(CC3)CN2C(=O)C(F)(F)F)ccn1 (stereo not drawn) [Compound 91, N-[2--(dimethylamino)-ethyl]-N-ethyl-2-[({4-[7-(trifluoroacetyl)-5-oxa-7-azaspiro[2.5]-octan-6-yl]pyridin-2-yl}methyl)amino]-acetamide] | < 250 | < 250 | < 250 |
| CN(C)CC1CCC(CNCc2cc(C=O)ccn2)CC1 (stereo not drawn) [Compound 97, 2-{[({4-[(dimethylamino)-methyl]cyclohexyl}-methyl)amino]-methyl}pyridine-4-carbaldehyde] | 250 to 2500 | < 250 | < 250 |
| CN(C)C/C=C\CNCc1cc(C=O)ccn1 [Compound 99, 2-({[(2Z)-4-(dimethylamino)-but-2-en-1-yl]amino}methyl)-pyridine-4-carbaldehyde] | > 2500 | 250 to 2500 | > 2500 |
| CN1CCC(CNCc2cc(C=O)ccn2)CC1 [Compound 100, 2-({[(1-methyl-piperidin-4-yl)methyl]amino}-methyl)pyridine-4-carbaldehyde] | < 250 | < 250 | < 250 |
| CCN(CCN(C)C)C(=O)CNCc1cc(C=O)ccn1 [Compound 101] | < 250 | < 250 | < 250 |
| CCN(CC)CCCCNCc1cc(C=O)ccn1 [Compound 107, 2-({[4-(diethylamino)-butyl]amino}-methyl)pyridine-4-carbaldehyde] | < 250 | < 250 | < 250 |
| O=Cc1ccnc(CNCCCN2CCCC2)c1 [Compound 111, 2-({[3-(pyrrolidin-1-yl)propyl]amino}-methyl)pyridine-4-carbaldehyde] | < 250 | < 250 | < 250 |
| CCN(CC)CCCCN(Cc1cc(C=O)ccn1)C(=O)C(F)(F)F [Compound 115, N-[4-(diethylamino)butyl]-2,2,2-trifluoro-N-[(4-formylpyridin-2-yl)methyl]acetamide] | < 250 | < 250 | < 250 |
| CCN(CC(C)(C)N(C)C)C(=O)CNCc1cc(C=O)ccn1 [Compound 118, N-[2-(dimethylamino)-2-methylpropyl]-N-ethyl-2-{[(4-formylpyridin-2-yl)methyl]amino}-acetamide] | < 250 | < 250 | < 250 |

Source: US9650339B2, “Inhibitors of histone demethylases” (Gilead Sciences, Inc., priority 2013, dated 2017)
